# Measured values published in US9758485B2, “Compounds for controlling arthropods” (priority 2013, dated 2017).
# What was measured:
# Lucilia cuprina = Lucilia cuprina test; type: in vivo; settings: application rate 100 ppm; L1 larvae in minced horsemeat; kill after 2 days
# Method in brief: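 About 20 L1 larvae placed on minced horsemeat treated with compound, formulated in DMSO and diluted with water to test concentration. Kill in % scored after 2 days (100% = all larvae dead, 0% = none).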
# Amblyomma hebraeum = Amblyomma hebraeum test (tick nymphs, immersion); type: in vivo; settings: application rate 100 ppm; tick nymphs immersed for one minute; kill after 42 days
# Protocol: Solvent: dimethyl sulphoxide
# To produce an appropriate active ingredient formulation, 10 mg of active ingredient are mixed with 0.5 ml of dimethyl sulphoxide, and the concentrate is diluted with water to the desired concentration.
# Tick nymphs (Amblyomma hebraeum) are placed into perforated plastic beakers and immersed in the desired concentration for one minute. The ticks are transferred on filter paper into a Petri dish and stored in a climate-controlled cabinet.
# After 42 days, the kill in % is determined. 100% means that all of the ticks have been killed; 0% means that none of the ticks have been killed.
# [1] = logP determination by HPLC on a reversed-phase column (C18), EEC Directive 79/831 Annex V.A8; type: physicochemical; settings: for logP^a): HPLC-MS method a), Table I-T3; for log P: HPLC-MS, reversed-phase column (C18)
# [2] = system: Boophilus microplus Parkhurst strain, SP-resistant; test: Boophilus microplus - dip test; type: in vivo; settings: application rate 100 ppm; dip of engorged adult female ticks; laying of fertile eggs, after 7 days
# Method in brief: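 Adult engorged females of SP-resistant Parkhurst strain (8–10 per tube) fully immersed in compound diluted in water from a DMSO solution. Ticks then kept on filter discs in a climate-controlled room; efficacy scored from fertile egg laying at 7 days, with unclear eggs held about 42 days until hatch (100% = no fertile eggs).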
# Rhipicephalus sanguineus = Rhipicephalus sanguineus - in vitro contact tests with adult brown dog ticks; type: in vivo
# Protocol: Rhipicephalus sanguineus—In Vitro Contact Tests with Adult Brown Dog Ticks
# For the coating of the test tubes, 9 mg of active ingredient are first dissolved in 1 ml of acetone p.a. and then diluted to the desired concentration with acetone p.a. 250 μl of the solution are distributed homogeneously on the inner walls and base of a 25 ml test tube by turning and rocking on an orbital shaker (rocking rotation at 30 rpm for 2 h). With 900 ppm active ingredient solution and internal surface 44.7 cm^2, given homogeneous distribution, an area-based dose of 5 μg/cm^2 is achieved.
# After the solvent has evaporated off, the tubes are populated with 5-10 adult dog ticks (Rhipicephalus sanguineus), sealed with a perforated plastic lid and incubated in a horizontal position in the dark at room temperature and ambient humidity. After 48 h, efficacy is determined. To this end, the ticks are knocked to the floor of the tube and incubated on a hotplate at 45-50° C. for not more than 5 min. Ticks which remain motionless on the floor or move in such an uncoordinated manner that they are unable to deliberately avoid the heat by climbing upwards are considered to be dead or moribund.
# An efficacy of 100% means that all the ticks were dead or moribund. 0% efficacy means that none of the ticks had been harmed.
# Boophilus microplus = Boophilus microplus - injection test; type: in vivo; settings: application rate 20 μg/animal; injected into engorged adult female ticks; laying of fertile eggs, after 7 days
# Method in brief: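 Engorged adult female Boophilus microplus ticks (5 per dose) each received a 1 μl abdominal injection of compound in DMSO and were held in a climate-controlled room. Efficacy was scored after 7 days from fertile egg laying, with unclear eggs kept until hatching (~42 days); 100% means no fertile eggs.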
# Ctenocephalides felis [3] = test: Ctenocephalides felis - in vitro contact tests with adult cat fleas; type: in vivo; settings: application rate 5 μg/cm^2 (=500 g/ha), after 48 h (dead or moribund)
# Method in brief: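 Acetone solution coated on test-tube inner walls (900 ppm gives 5 μg/cm^2). After drying, 5-10 adult cat fleas added and kept horizontal at room temperature and ambient humidity. At 48 h fleas knocked down; motionless or uncoordinated ones counted dead/moribund, giving % efficacy.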
# Musca domestica = Musca domestica test; type: in vivo; settings: application rate 100 ppm; adult houseflies; kill after 2 days
# Method in brief: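 Compound in DMSO, diluted with water, applied to a sugar-solution sponge; vessels hold 10 adult houseflies. Percent mortality scored after 2 days.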
# Ctenocephalides felis [4] = test: Ctenocephalides felis - oral test; type: in vivo; settings: application rate 100 ppm in citrated cattle blood; adult fleas; kill after 2 days
# Method in brief: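 About 20 unfed adult cat fleas fed through a parafilm membrane on citrated cattle blood containing compound, dosed from a DMSO stock. Kill in % scored after 2 days; 100% means all fleas dead.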
# [5] = application rate 5 μg/cm^2, after 48 h (dead or moribund)
SMILES,efficacy (Lucilia cuprina) [%],efficacy (Amblyomma hebraeum) [%],logP^a) [1],efficacy [2] [%],efficacy (Rhipicephalus sanguineus; [5]) [%],efficacy (Boophilus microplus) [%],efficacy (Ctenocephalides felis [3]) [%],efficacy (Musca domestica) [%],efficacy (Ctenocephalides felis [4]) [%],"efficacy (Rhipicephalus sanguineus; application rate 0.2 μg/cm^2, after 48 h (dead or moribund)) [%]",log P [1]
Cc1cc(C(F)(C(F)(F)F)C(F)(F)F)cc(C)c1-n1cc(-c2ccc(Cl)c(C(=O)NC3(C#N)CC3)c2)cn1 [I-T3-3],100,100,4.2,100,100,100,100,100,100,,
Cc1cc(C(F)(C(F)(F)F)C(F)(F)F)cc(C)c1-n1cc(-c2cnc(Cl)c(C(=O)NC3CC3)c2)cn1 [I-T3-20],100,100,3.8,100,100,100,100,100,100,,
Cc1cc(C(F)(C(F)(F)F)C(F)(F)F)cc(C)c1-n1cc(-c2cnc(Cl)c(C(=O)NC3(C#N)CC3)c2)cn1 [I-T3-21],100,100,3.7,100,100,100,100,100,100,,
O=C(NC1CC1)c1cc(-c2cnn(-c3c(Cl)cc(C(F)(C(F)(F)F)C(F)(F)F)cc3Cl)c2)cnc1Cl [I-T3-42],100,100,3.8,100,100,100,100,100,100,,
N#CC1(NC(=O)c2cc(-c3cnn(-c4c(Cl)cc(C(F)(C(F)(F)F)C(F)(F)F)cc4Cl)c3)cnc2Cl)CC1 [I-T3-43],100,100,3.8,100,80,100,100,100,100,,
Cc1cc(C(F)(C(F)(F)F)C(F)(F)F)cc(C(F)(F)F)c1-n1cc(-c2ccc(Cl)c(C(=O)NC3CC3)c2)cn1 [I-T3-54],100,100,4.4,100,100,100,100,100,100,,
Cc1cc(C(F)(C(F)(F)F)C(F)(F)F)cc(C(F)(F)F)c1-n1cc(-c2ccc(Cl)c(C(=O)NC3(C#N)CC3)c2)cn1 [I-T3-55],100,100,4.3,100,100,100,100,100,100,,
O=C(NC1CC1)c1cc(-c2cnn(-c3c(Cl)cc(C(F)(C(F)(F)F)C(F)(F)F)cc3C(F)(F)F)c2)ccc1Cl [I-T3-56],100,100,4.4,100,100,100,100,100,100,,
O=C(NC1CC1)c1cc(-c2cnn(-c3c(F)cc(C(F)(C(F)(F)F)C(F)(F)F)cc3F)c2)ccc1Cl [I-T3-61],100,80,4.0,100,100,100,100,100,100,,
Cc1cc(C(F)(C(F)(F)F)C(F)(F)F)cc(Cl)c1-n1cc(-c2ccc(Cl)c(C(=O)NC3CC3)c2)cn1 [I-T3-63],100,100,4.4,100,100,100,100,100,100,,
Cc1cc(C(F)(C(F)(F)F)C(F)(F)F)cc(Cl)c1-n1cc(-c2ccc(Cl)c(C(=O)NC3(C#N)CC3)c2)cn1 [I-T3-64],100,100,4.2,100,,100,100,100,100,80,
CCc1cc(C(F)(C(F)(F)F)C(F)(F)F)cc(Cl)c1-n1cc(-c2ccc(Cl)c(C(=O)NC3(C#N)CC3)c2)cn1 [I-T3-71],100,100,4.5,100,100,100,100,100,100,,
CCc1cc(C(F)(C(F)(F)F)C(F)(F)F)cc(Cl)c1-n1cc(-c2ccc(Cl)c(C(=O)NC3CC3)c2)cn1 [I-T3-72],100,100,4.6,100,100,100,100,100,100,,
CCc1cc(C(F)(F)C(F)(F)F)cc(C)c1-n1cc(-c2ccc(Cl)c(C(=O)NC3CC3)c2)cn1 [I-T3-81],100,100,4.3,100,100,100,100,90,100,,
Cc1ncc(-c2cnn(-c3c(Cl)cc(C(F)(C(F)(F)F)C(F)(F)F)cc3Cl)c2)cc1C(=O)NC1CC1 [I-T3-91],100,100,,100,100,100,100,100,100,,3.3
Cc1ncc(-c2cnn(-c3c(Cl)cc(C(F)(C(F)(F)F)C(F)(F)F)cc3Cl)c2)cc1C(=O)NC1(C#N)CC1 [I-T3-92],100,100,,100,80,100,100,100,100,,3.4
Cc1cc(C(F)(C(F)(F)F)C(F)(F)F)cc(C)c1-n1cc(-c2cnc(C)c(C(=O)NC3CC3)c2)cn1 [I-T3-96],100,100,,100,100,100,100,100,100,,3.3
Cc1cc(C(F)(C(F)(F)F)C(F)(F)F)cc(C)c1-n1cc(-c2cnc(C)c(C(=O)NC3(C#N)CC3)c2)cn1 [I-T3-97],100,100,,100,100,100,100,100,100,,3.4
